Assay results as given in the supplement of paper PMC10307832.

Legend:
Test in all cases: relative viability (nuclei count vs DMSO), 5 days (fraction); higher = more cells survive
[1] = system: NCI-H1666
Method in brief: (§1)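 A single step with final 0.05% Triton X-100, 1% formaldehyde and 1 ug/ml Hoechst fixed the cells and stained nuclei 5 days after treatment. Lung cancer cell lines in 1536-well plates had been treated by pin tool the day after seeding with one drug alone or a fixed anchor-drug dose plus five library-drug doses (not always all listed) in √10 steps, and nuclei were counted on 4× images. Relative viability is the ratio of nuclei in treated wells to nuclei in vehicle wells, taken as the median of duplicate plates.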

[2] = system: NCI-H2085
Method in brief: as §1

[3] = system: NCI-H661
Method in brief: as §1

[4] = system: ABC-1
Method in brief: as §1

[5] = system: NCI-H1355
Method in brief: as §1

[6] = system: NCI-H838
Method in brief: as §1

[7] = system: NCI-H647
Method in brief: as §1

[8] = system: HOP-62
Method in brief: as §1

[9] = system: NCI-H23
Method in brief: as §1

[10] = system: NCI-H2347
Method in brief: as §1

[11] = system: NCI-H2228
Method in brief: as §1

[12] = system: 201T
Method in brief: as §1

[13] = system: CAL-12T
Method in brief: as §1

[14] = system: HCC-44
Method in brief: as §1

[15] = system: NCI-H2170
Method in brief: as §1

[16] = system: LCLC-103H
Method in brief: as §1

[17] = system: NCI-H1993
Method in brief: as §1

[18] = system: COR-L23
Method in brief: as §1

[19] = system: NCI-H1651
Method in brief: as §1

[20] = system: NCI-H520
Method in brief: as §1

[21] = system: NCI-H322M
Method in brief: as §1

[22] = system: LC-2-ad
Method in brief: as §1

`O=c1[nH]c2ccccc2n1C1CCN(CCCC(c2ccc(F)cc2)c2ccc(F)cc2)CC1` [Pimozide] + C[C@@H](Oc1cc(-c2cnn(C3CCNCC3)c2)cnc1N)c1c(Cl)ccc(F)c1Cl [Crizotinib] (partner 1 µM) was tested, and the relative viability ([1]; first compound 0.08 µM) was 0.882, the relative viability ([1]; first compound 0.253 µM) was 0.913 and the relative viability ([1]; first compound 0.8 µM) was 1.02. For the same molecule, the relative viability ([1]; first compound 2.53 µM) was 0.751, the relative viability ([1]; first compound 8 µM) was 0.789 and the relative viability ([2]; first compound 0.08 µM) was 0.897. The relative viability ([2]; first compound 0.253 µM) was 0.792, the relative viability ([2]; first compound 0.8 µM) was 0.772 and the relative viability ([2]; first compound 2.53 µM) was 0.712. The relative viability ([2]; first compound 8 µM) was 0.775, the relative viability ([3]; first compound 0.08 µM) was 0.975 and the relative viability ([3]; first compound 0.8 µM) was 0.921. It also gave a relative viability ([3]; first compound 2.53 µM) of 0.995, a relative viability ([3]; first compound 8 µM) of 0.962 and a relative viability ([4]; first compound 0.08 µM) of 1.03. The relative viability ([4]; first compound 0.253 µM) was 0.604, the relative viability ([4]; first compound 0.8 µM) was 0.783 and the relative viability ([4]; first compound 2.53 µM) was 0.755. For the same molecule, the relative viability ([4]; first compound 8 µM) was 0.606, the relative viability ([5]; first compound 0.08 µM) was 1.08 and the relative viability ([5]; first compound 0.253 µM) was 0.988. The relative viability ([5]; first compound 0.8 µM) was 0.959, the relative viability ([5]; first compound 2.53 µM) was 0.937 and the relative viability ([5]; first compound 8 µM) was 1.06. For the same molecule, the relative viability ([6]; first compound 0.08 µM) was 0.855, the relative viability ([6]; first compound 0.253 µM) was 0.808 and the relative viability ([6]; first compound 0.8 µM) was 0.786. The relative viability ([6]; first compound 2.53 µM) was 0.774, the relative viability ([6]; first compound 8 µM) was 0.955 and the relative viability ([7]; first compound 0.08 µM) was 1.03. The relative viability ([7]; first compound 0.253 µM) was 1.04, the relative viability ([7]; first compound 0.8 µM) was 0.988 and the relative viability ([7]; first compound 2.53 µM) was 0.919. The relative viability ([7]; first compound 8 µM) was 0.544, the relative viability ([8]; first compound 0.08 µM) was 1.03 and the relative viability ([8]; first compound 0.253 µM) was 0.859. For the same molecule, the relative viability ([8]; first compound 2.53 µM) was 0.819, the relative viability ([8]; first compound 8 µM) was 0.991 and the relative viability ([9]; first compound 0.08 µM) was 0.625. The relative viability ([9]; first compound 0.253 µM) was 0.482, the relative viability ([9]; first compound 0.8 µM) was 0.517 and the relative viability ([9]; first compound 2.53 µM) was 0.573. The relative viability ([9]; first compound 8 µM) was 0.524, the relative viability ([10]; first compound 0.08 µM) was 0.807 and the relative viability ([10]; first compound 0.253 µM) was 0.661. It also gave a relative viability ([10]; first compound 0.8 µM) of 0.545, a relative viability ([10]; first compound 2.53 µM) of 0.517 and a relative viability ([10]; first compound 8 µM) of 0.51. For the same molecule, the relative viability ([11]; first compound 0.08 µM) was 0.406, the relative viability ([11]; first compound 0.253 µM) was 0.572 and the relative viability ([11]; first compound 0.8 µM) was 0.406. The relative viability ([11]; first compound 2.53 µM) was 0.38, the relative viability ([11]; first compound 8 µM) was 0.354 and the relative viability ([12]; first compound 0.08 µM) was 0.995. For the same molecule, the relative viability ([12]; first compound 0.253 µM) was 1, the relative viability ([12]; first compound 0.8 µM) was 1.03 and the relative viability ([12]; first compound 2.53 µM) was 1.05. For the same molecule, the relative viability ([12]; first compound 8 µM) was 0.964, the relative viability ([13]; first compound 0.08 µM) was 0.711 and the relative viability ([13]; first compound 0.253 µM) was 0.644. It also gave a relative viability ([13]; first compound 0.8 µM) of 0.557, a relative viability ([13]; first compound 2.53 µM) of 0.469 and a relative viability ([13]; first compound 8 µM) of 0.473. For the same molecule, the relative viability ([14]; first compound 0.08 µM) was 0.73, the relative viability ([14]; first compound 0.253 µM) was 0.733 and the relative viability ([14]; first compound 0.8 µM) was 0.743. It also gave a relative viability ([14]; first compound 2.53 µM) of 0.829, a relative viability ([14]; first compound 8 µM) of 0.75 and a relative viability ([15]; first compound 0.08 µM) of 1.03. The relative viability ([15]; first compound 0.253 µM) was 1.14, the relative viability ([15]; first compound 0.8 µM) was 1.06 and the relative viability ([15]; first compound 2.53 µM) was 1.22. For the same molecule, the relative viability ([15]; first compound 8 µM) was 1.07, the relative viability ([16]; first compound 0.08 µM) was 1 and the relative viability ([16]; first compound 0.253 µM) was 0.967. For the same molecule, the relative viability ([16]; first compound 0.8 µM) was 1.02, the relative viability ([16]; first compound 2.53 µM) was 1.07 and the relative viability ([16]; first compound 8 µM) was 1.12. It also gave a relative viability ([17]; first compound 0.08 µM) of 0.818, a relative viability ([17]; first compound 0.253 µM) of 0.816 and a relative viability ([17]; first compound 0.8 µM) of 0.816. It also gave a relative viability ([17]; first compound 2.53 µM) of 0.859, a relative viability ([17]; first compound 8 µM) of 0.898 and a relative viability ([18]; first compound 0.08 µM) of 0.656. It also gave a relative viability ([18]; first compound 0.253 µM) of 0.606, a relative viability ([18]; first compound 0.8 µM) of 0.575 and a relative viability ([18]; first compound 2.53 µM) of 0.601. It also gave a relative viability ([18]; first compound 8 µM) of 0.575, a relative viability ([19]; first compound 0.08 µM) of 0.801 and a relative viability ([19]; first compound 0.8 µM) of 0.818. It also gave a relative viability ([19]; first compound 2.53 µM) of 0.764, a relative viability ([19]; first compound 8 µM) of 0.933 and a relative viability ([20]; first compound 0.08 µM) of 0.817. It also gave a relative viability ([20]; first compound 0.253 µM) of 0.802, a relative viability ([20]; first compound 0.8 µM) of 0.702 and a relative viability ([20]; first compound 2.53 µM) of 0.819. The relative viability ([20]; first compound 8 µM) was 0.675, the relative viability ([21]; first compound 0.253 µM) was 0.805 and the relative viability ([21]; first compound 0.8 µM) was 0.846. The relative viability ([21]; first compound 2.53 µM) was 0.832, the relative viability ([21]; first compound 8 µM) was 0.943 and the relative viability ([22]; first compound 0.08 µM) was 0.474. It also gave a relative viability ([22]; first compound 0.253 µM) of 0.441, a relative viability ([22]; first compound 0.8 µM) of 0.403 and a relative viability ([22]; first compound 2.53 µM) of 0.466. It also gave a relative viability ([22]; first compound 8 µM) of 0.479.
